Source: US5968751A, “Method for detecting the presence of protein C antibody in a fluid sample” (The Scripps Research Institute, priority 1997, dated 1999)
No end group written: not given here.

Molecular target: APC (Homo sapiens, UniProt P04070)
Assay: APC-catalyzed inactivation of Factor Va, residual Va by prothrombinase assay
Type: biochemical
Set-up: Protein C consists of a 155 amino acid residue light chain and a 262 amino acid residue heavy chain; from tissue; Factor Va a gift (Tans and Rosing, Univ. of Limburg)
Method: The APC catalyzed inactivation of Factor Va assays were performed in 96-well flat bottom ELISA plates (Stockwell Scientific, Walnut, Calif.). The reactions were performed either in the presence or absence of phospholipid vesicles to determine if either PC311-325 or PC142-155 inhibited APC anticoagulant activity by inhibiting the binding of APC or its substrate to phospholipids or if it was independent of phospholipid surfaces. This determination was relevant in light of reports that the assembly of APC with its substrates Va and VIIIa on the phospholipid surface appeared to be mediated mainly by the Gla-domain of APC in the presence of calcium which was crucial for exerting significant anticoagulant activity. [Sugo et al., J. Biol. Chem., 260:10453-10457 (1985); […] et al., J. Biol. Chem., 261:9684-9693 (1986); Solymoss et al., J. Biol. Chem., 263:14884-14890 (1988)]. For the preparation of phospholipid residues for use in the assay bovine brain phosphatidylserine in chloroform […]/methanol (CH3 OH) and soybean phosphatidylcholine (Type III-S, CCl4 solution) were purchased from Sigma and were reported to be at least 98% homogeneous (supplier's estimates). To prepare vesicles, phosphatidylserine was admixed with phosphatidylcholine (20% phosphatidylserine/80% phosphatidylcholine; M/M) and the organic solvent evaporated under a stream of nitrogen. The resultant phospholipid admixture was resuspended in 0.05 M TBS-Az at pH 7.4 as a 1.25 mM solution by vortexing. Single bilayer vesicles were obtained during sonication by direct probe (Heat-Systems-Ultrasonics, Inc., […] Sonicator) for 6×30 second bursts at 30 W in 2 minute intervals at 4° C. The reaction buffer consisted of 0.05 M Tris-HCl, at pH 7.4 containing 0.1 M NaCl, 0.02% NaN3, 0.5% BSA and 2.5 mM CaCl2. […] M/M) either at 22° C. (in the presence of phospholipids) or at 37° C. (in the absence of phospholipids). […] The monoclonal antibody C3 which specifically recognizes the light-chain of PC as well as APC was prepared as in Example 2. Factor Va (a gift from Drs. Tans and Rosing, Univ. of Limburg, the Netherlands) was first admixed with or without PC311-325 or PC142-155 and maintained for 20 minutes either at 22° C. or at 37° C. prior to admixture with APC. […] Factor Va was determined via its cofactor activity in the activation of prothrombin by Factor Xa. […] The molar concentration of Factor Xa was determined by active site titration as described by Chase et al., Biochem. Biophys. […]

Sequence of APC (P12259 29-737 partner limits assumed): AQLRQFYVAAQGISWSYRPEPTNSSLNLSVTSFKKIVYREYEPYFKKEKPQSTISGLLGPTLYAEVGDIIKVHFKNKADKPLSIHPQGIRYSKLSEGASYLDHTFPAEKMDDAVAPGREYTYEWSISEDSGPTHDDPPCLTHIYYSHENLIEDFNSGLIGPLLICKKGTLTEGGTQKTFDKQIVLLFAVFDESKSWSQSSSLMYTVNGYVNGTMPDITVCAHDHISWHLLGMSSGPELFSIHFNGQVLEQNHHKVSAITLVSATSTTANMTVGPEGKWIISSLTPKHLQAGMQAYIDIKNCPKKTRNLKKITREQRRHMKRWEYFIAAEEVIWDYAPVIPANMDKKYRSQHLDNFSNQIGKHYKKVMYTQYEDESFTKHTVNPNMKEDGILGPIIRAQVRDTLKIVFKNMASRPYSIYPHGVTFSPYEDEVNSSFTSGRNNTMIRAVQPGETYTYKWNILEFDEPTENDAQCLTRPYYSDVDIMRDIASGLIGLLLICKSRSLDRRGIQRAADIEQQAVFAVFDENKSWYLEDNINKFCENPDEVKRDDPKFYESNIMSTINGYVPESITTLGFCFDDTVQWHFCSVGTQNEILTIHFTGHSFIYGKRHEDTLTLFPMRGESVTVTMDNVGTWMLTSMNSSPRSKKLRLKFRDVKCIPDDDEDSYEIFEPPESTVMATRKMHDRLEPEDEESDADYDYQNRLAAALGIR
Sequence of APC (P12259 1574-2224 partner limits assumed): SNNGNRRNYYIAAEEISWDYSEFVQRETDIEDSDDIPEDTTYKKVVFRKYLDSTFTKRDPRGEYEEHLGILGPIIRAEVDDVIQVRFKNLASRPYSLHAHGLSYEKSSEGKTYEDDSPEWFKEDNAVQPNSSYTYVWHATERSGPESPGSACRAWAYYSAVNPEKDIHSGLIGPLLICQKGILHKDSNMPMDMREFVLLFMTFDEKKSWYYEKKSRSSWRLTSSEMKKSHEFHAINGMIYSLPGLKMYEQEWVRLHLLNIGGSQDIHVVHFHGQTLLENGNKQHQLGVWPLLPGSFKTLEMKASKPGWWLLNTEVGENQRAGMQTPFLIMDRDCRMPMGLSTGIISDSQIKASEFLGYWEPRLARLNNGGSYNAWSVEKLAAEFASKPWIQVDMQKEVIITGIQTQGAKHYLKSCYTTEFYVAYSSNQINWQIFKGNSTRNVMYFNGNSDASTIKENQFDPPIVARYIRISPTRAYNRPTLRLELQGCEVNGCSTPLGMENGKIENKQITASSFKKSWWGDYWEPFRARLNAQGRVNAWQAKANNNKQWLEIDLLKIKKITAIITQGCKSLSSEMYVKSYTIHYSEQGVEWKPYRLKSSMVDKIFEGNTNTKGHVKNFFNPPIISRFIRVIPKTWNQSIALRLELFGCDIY
Sequence of APC (P04070 43-197 limits assumed): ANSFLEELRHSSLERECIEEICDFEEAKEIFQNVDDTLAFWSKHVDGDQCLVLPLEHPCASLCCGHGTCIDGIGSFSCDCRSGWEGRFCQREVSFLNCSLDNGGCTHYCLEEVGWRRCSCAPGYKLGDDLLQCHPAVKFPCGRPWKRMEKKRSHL
Sequence of APC (P04070 212-450 limits assumed): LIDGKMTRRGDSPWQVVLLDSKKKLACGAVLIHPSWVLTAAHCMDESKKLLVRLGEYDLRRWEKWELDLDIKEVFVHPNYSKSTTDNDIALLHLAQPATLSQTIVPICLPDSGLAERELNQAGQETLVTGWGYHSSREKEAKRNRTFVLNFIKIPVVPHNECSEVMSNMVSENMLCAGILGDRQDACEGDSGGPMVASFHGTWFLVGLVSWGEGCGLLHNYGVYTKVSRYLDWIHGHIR

Compound | inhibition at 500 µM (absence of phospholipids, 500 μM PC142-155) [%] | rate of Factor Va inactivation (%Vi /min) (absence of phospholipids, 5 nM APC, 40 nM Va, 50 μM PC311-325) [% Vi /min] | IC50 (presence of phospholipid vesicles, read-out: half-maximal inhibition of the APC-catalyzed inactivation of Factor Va) [µM] | inhibition at 50 µM (read-out: inhibition of APC activity) [%]
CSCC[C@H](NC(=O)[C@H](CCCNC(=N)N)NC(=O)[C@H](CCCCN)NC(=O)[C@H](Cc1c[nH]c2ccccc12)NC(=O)[C@@H]1CCCN1C(=O)[C@H](CCCNC(=N)N)NC(=O)CN)C(=O)N[C@@H](CCC(=O)O)C(=O)N[C@@H](CCCCN)C(=O)N[C@@H](CCCCN)C(=O)N[C@@H](CCCNC(=N)N)C(=O)N[C@@H](CO)C(=O)N[C@@H](Cc1c[nH]cn1)C(=O)N[C@@H](CC(C)C)C(=O)N[C@@H](CS)C(N)=O [PC142-155, Gly-Arg-Pro-Trp-Lys-Arg-Met-Glu-Lys-Lys-Arg-Ser-His-Leu] | 87 |  |  | 
KRNRTFVLNFIKIPV-NH2 [PC311-325, Lys-Arg-Asn-Arg-Thr-Phe-Val-Leu-Asn-Phe-Ile-Lys-Ile-Pro-Val] |  | 0.5 | 6 | 87
